This is an account of results in patent US10906916B2, “Thienopyrimidinones as ubiquitin-specific protease 7 inhibitors” (Valo Early Discovery, Inc., priority 2015, dated 2021).

In the test the target is T1, USP7 (construct USP7 (208-1102) 6*His) (Homo sapiens, UniProt Q93009).
T1 construct: USP7, construct USP7 (208-1102) 6*His, Viva Biotech; 6xHis; purchased Viva Biotech
T1 sequence (Q93009 208-1102): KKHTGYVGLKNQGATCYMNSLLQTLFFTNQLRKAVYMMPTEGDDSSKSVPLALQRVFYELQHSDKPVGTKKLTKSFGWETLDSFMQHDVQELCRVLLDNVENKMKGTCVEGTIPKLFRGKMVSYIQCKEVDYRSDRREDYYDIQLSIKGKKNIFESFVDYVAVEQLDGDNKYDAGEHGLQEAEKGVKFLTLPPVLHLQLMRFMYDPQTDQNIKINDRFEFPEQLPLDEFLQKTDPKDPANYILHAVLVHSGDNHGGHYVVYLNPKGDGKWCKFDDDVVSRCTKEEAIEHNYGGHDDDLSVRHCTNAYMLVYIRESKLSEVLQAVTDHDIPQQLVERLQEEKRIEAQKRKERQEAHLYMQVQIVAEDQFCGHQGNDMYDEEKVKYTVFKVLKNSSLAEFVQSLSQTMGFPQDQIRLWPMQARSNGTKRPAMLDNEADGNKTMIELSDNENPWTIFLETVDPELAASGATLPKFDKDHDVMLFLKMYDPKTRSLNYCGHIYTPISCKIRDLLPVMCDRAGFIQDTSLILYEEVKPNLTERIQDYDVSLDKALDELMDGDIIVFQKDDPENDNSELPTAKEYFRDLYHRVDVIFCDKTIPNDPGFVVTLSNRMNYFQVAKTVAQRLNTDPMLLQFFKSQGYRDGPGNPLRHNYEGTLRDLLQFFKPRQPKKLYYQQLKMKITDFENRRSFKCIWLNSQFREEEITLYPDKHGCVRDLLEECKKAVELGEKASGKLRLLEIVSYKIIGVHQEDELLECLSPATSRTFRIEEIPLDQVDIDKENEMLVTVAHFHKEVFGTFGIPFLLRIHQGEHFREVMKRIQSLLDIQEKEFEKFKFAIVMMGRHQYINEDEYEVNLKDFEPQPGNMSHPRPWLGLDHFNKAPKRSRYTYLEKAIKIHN
In words: USP7 Assay (Ubiquitin-Rhodamine110 Assay). Format: biochemical. The following applies: Ub-Rh110 substrate 25 nM, enzyme 62.5 pM, 30 min preincubation; read-out: USP7_IC50. The method, then: Each assay was performed in a final volume of 15 μL in assay buffer containing 20 mM Tris-HCl (pH 8.0, (1M Tris-HCl, pH 8.0 solution; Corning 46-031-CM)), 1 mM GSH (L-Glutathione reduced; Sigma #G4251), 0.03% BGG (0.22 μM filtered, Sigma, #G7516-25G), and 0.01% Triton X-100 (Sigma, #T9284-10L). Nanoliter quantities of either an 8-point or 10-point, 3-fold serial dilution in DMSO was pre-dispensed into assay plates (Perkin Elmer, ProxiPlate-384 F Plus, #6008269) for a final test concentration range of either 25 μM to 11 nM or 25 μM to 1.3 nM, respectively. The final concentration of the enzyme (USP7, construct USP7 (208-1102) 6*His, Viva Biotech) in the assay was 62.5 pM. Final substrate (Ub-Rh110; Ubiquitin-Rhodamine 110, R&D Systems #U-555) concentration was 25 nM with [Ub-Rh110]<<Km. 5 μL of 2× enzyme was added to assay plates (pre-stamped with compound) preincubated with USP7 for 30 min and then 5 μL of 2× Ub-Rh110 was added to assay plates. Plates were incubated stacked for 20 min at room temperature before addition of 5 μL, of stop solution (final concentration of 1.0 mM citric acid in assay buffer (Sigma, #251275-500G)). Fluorescence was read on the Envision (Excitation at 485 nm and Emission at 535 nm; Perkin Elmer) or on the PheraSTAR (Excitation at 485 nm and Emission at 535 nm; BMG Labtech).
Data from USP7 Assay was reported as percent inhibition (inh) compared with control wells based on the following equation: % inh=1−((FLU−AveLow)/(AveHigh−AveLow)) where FLU=measured Fluorescence; AveLow=average Fluorescence of no enzyme control (n=16); and AveHigh=average Fluorescence of DMSO control (n=16). IC50 values were determined by curve fitting of the standard 4 parameter logistic fitting algorithm included in the Activity Base software package: IDBS XE Designer Model205. Data is fitted using the Levenburg Marquardt algorithm.
Take `CC(CC(=O)N1CCC(O)(Cn2cnc3sccc3c2=O)CC1)c1ccccc1` (stereo not drawn) [Compound I-1, 3-((4-hydroxy-1-(3-phenylbutanoyl)piperidin-4-yl)methyl)thieno[2,3-d]pyrimidin-4(3H)-one]: the IC50 lay in the range of 0.3 to 1 µM.

On to `CC(CC(=O)N1CCC(O)(Cn2cnc3sc4c(c3c2=O)CCCC4)CC1)c1ccccc1` (stereo not drawn) [Compound I-2, 3-((4-hydroxy-1-(3-phenylbutanoyl)piperidin-4-yl)methyl)-5,6,7,8-tetrahydrobenzo[4,5]thieno[2,3-d]pyrimidin-4(3H)-one], for which the IC50 is more than 10 µM.

`CC(CC(=O)N1CCC(O)(Cn2cnc3sc4c(c3c2=O)CCC4)CC1)c1ccccc1` (stereo not drawn) [Compound I-3, 3-((4-hydroxy-1-(3-phenylbutanoyl)piperidin-4-yl)methyl)-3,5,6,7-tetrahydro-4H-cyclopenta[4,5]thieno[2,3-d]pyrimidin-4-one]: the IC50 is 1 to 10 µM.

As to `CCCc1cc2c(=O)n(CC3(O)CCN(C(=O)CC(C)c4ccccc4)CC3)cnc2s1` (stereo not drawn) [Compound I-4, 3-((4-hydroxy-1-(3-phenylbutanoyl)piperidin-4-yl)methyl)-6-propylthieno[2,3-d]pyrimidin-4(3H)-one], the IC50 was in the range of 0.3 to 1 µM.

Regarding `CCC(CC(=O)N1CCC(O)(Cn2cnc3sccc3c2=O)CC1)c1ccccc1` (stereo not drawn) [Compound I-5, 3-((4-hydroxy-1-(3-phenylpentanoyl)piperidin-4-yl)methyl)thieno[2,3-d]pyrimidin-4(3H)-one], the IC50 fell in the range of 1 to 10 µM.

For `Cc1cc2c(=O)n(CC3(O)CCN(C(=O)CC(C)c4ccccc4)CC3)cnc2s1` (stereo not drawn) [Compound I-6, 3-((4-hydroxy-1-(3-phenylbutanoyl)piperidin-4-yl)methyl)-6-methylthieno[2,3-d]pyrimidin-4(3H)-one], the IC50 was less than 0.3 µM.

On to `CCc1cc2c(=O)n(CC3(O)CCN(C(=O)CC(C)c4ccccc4)CC3)cnc2s1` (stereo not drawn) [Compound I-7, 6-ethyl-3-((4-hydroxy-1-(3-phenylbutanoyl)piperidin-4-yl)methyl)thieno[2,3-d]pyrimidin-4(3H)-one], for which the IC50 is less than 0.3 µM.

In the case of `Cc1sc2ncn(CC3(O)CCN(C(=O)CC(C)c4ccccc4)CC3)c(=O)c2c1C` (stereo not drawn) [Compound I-8, 3-((4-hydroxy-1-(3-phenylbutanoyl)piperidin-4-yl)methyl)-5,6-dimethylthieno[2,3-d]pyrimidin-4(3H)-one], the IC50 is more than 10 µM.

As for `COc1ccc(C(=O)N2CCC(O)(Cn3cnc4c(-c5ccc(F)cc5)csc4c3=O)CC2)cc1` [Compound I-9, 7-(4-fluorophenyl)-3-((4-hydroxy-1-(4-methoxybenzoyl)piperidin-4-yl)methyl)thieno[3,2-d]pyrimidin-4(3H)-one], the IC50 fell in the range of 1 to 10 µM.

Take `O=C(c1ccccc1)N1CCC(O)(Cn2cnc3c(-c4ccc(F)cc4)csc3c2=O)CC1` [Compound I-10, 3-((1-benzoyl-4-hydroxypiperidin-4-yl)methyl)-7-(4-fluorophenyl)thieno[3,2-d]pyrimidin-4(3H)-one]: the IC50 lay in the range of 1 to 10 µM.

In the case of `CN(C)C/C=C/C(=O)NCCCCC(=O)N1CCC(O)(Cn2cnc3c(-c4ccc(F)cc4)csc3c2=O)CC1` [Compound I-11, (E)-4-(dimethylamino)-N-(5-(4-((7-(4-fluorophenyl)-4-oxothieno[3,2-d]pyrimidin-3(4H)-yl)methyl)-4-hydroxypiperidin-1-yl)-5-oxopentyl)but-2-enamide], the IC50 was 1 to 10 µM.

Turning to `CN(C)C/C=C/C(=O)NCCCC(=O)N1CCC(O)(Cn2cnc3c(-c4ccc(F)cc4)csc3c2=O)CC1` [Compound I-12, (E)-4-(dimethylamino)-N-(4-(4-((7-(4-fluorophenyl)-4-oxothieno[3,2-d]pyrimidin-3(4H)-yl)methyl)-4-hydroxypiperidin-1-yl)-4-oxobutyl)but-2-enamide], the IC50 was in the range of 1 to 10 µM.
